{"source": "patent US9174965B2", "about": "“Pyrimidinylpiperidinyloxypyridone analogues as GPR119 modulators” (BRISTOL-MYERS SQUIBB COMPANY, priority 2012, dated 2015)", "key": {"male C57BL/6J mice": {"system": "male C57BL/6J mice", "assay": "Mouse oral glucose tolerance test", "type": "in vivo", "settings": "for Glucose Lowering: at the minimally efficacious dose, plasma glucose AUC in oGTT; for Minimally efficacious Dose: oGTT in C57BL/6J mice", "experimental": "Mouse Oral Glucose Tolerance Test\nTwenty four (24) male C57BL/6J mice (8-10 weeks old, average weight 28 g) were randomized into 4 groups (1 mouse/cage) of 6 mice per group based on fed plasma glucose and body weight. Prior to initiating the study, mice were fasted overnight and the next morning they were weighed and placed in the experimental lab. After 30 min in the environment, the mice were bled via tail tip at −60 min and immediately given their first oral administration of vehicle (40% PEG400, 10% Cremophor EL, 50% water) or compound solutions (5 ml/kg). At time 0 the mice were bled and given 50% glucose (2 g/kg) to initiate the oral glucose tolerance test (oGTT). The mice were bled 30, 60 and 120 min after the glucose load. Blood samples were drawn into potassium EDTA, placed on ice during the study and subsequently centrifuged for 10 min at 3000 rpm at 4° C. Plasma samples were diluted 11-fold for glucose analysis in the COBAS MIRA® System (Roche Diagnostics). Area under the curve was calculated from the plasma glucose time course data using the trapezoid rule with fasting plasma glucose as the baseline (GraphPad Prism Software). The statistical significance of the changes in the glucose AUCs resulting from the different treatments was determined by one-way ANOVA followed by Dunnett's test using the vehicle group as the control (JMP software, release 5.1.2).\nFind below in Table 7 data for compared compounds (See WO 2009/012275 A1)."}, "Aqueous solubility assay": {"assay": "Aqueous solubility assay", "type": "physicochemical", "settings": "aqueous buffer, thermodynamic from solid; pH 6.5 phosphate buffer, room temperature, 18-24 h", "experimental": "Approximately 0.75 mg of accurately weighed test compound was added to 1 mL of a pH 6.5 phosphate buffer (50 mM Potassium Phosphate Buffer) to make solutions with a nominal targeted concentration of 1 mM. The vial was then rotated on an orbital shaker at room temperature for 18-24 h. After equilibration time had been met, the test solution was centrifuge filtered through a 0.45 um membrane (Millipore Ultrafree Centrifugal Filters, Durapore PVDF 0.45 um). The filtrate was then analyzed by an Agilent HP1100 HPLC/UV at multiple wavelengths using diode array detection (e.g. 210, 230, 254 and 280 nm) against a previously generated calibration curve to determine compound concentration.\nFind below in Table 9 data for compared compounds (See WO 2011/127106 A1)."}, "in vitro": {"assay": "in vitro", "settings": "human, microsomes, pH 7.4", "description": "(§1) Metabolic Stability in Liver Microsomes Test\n(§2) The test compound was received as a 3.5 mM stock solution in 100 percent dimethyl sulfoxide (“DMSO”, Sigma Aldritch). The compound solution was diluted to create a 50 μM acetonitrile (“ACN”, Sigma Aldritch) solution containing 1.4% DMSO, which is then used as a 100-fold stock for incubation with microsomes. The test compound, β-nicotinamide adenine dinucleotide phosphate (“NADPH”, AppliChem Inc.) and liver microsome solutions are combined for incubation in three steps:\n(§3) 1) 450 μl of liver microsome suspension, protein concentration of 1.1 mg/ml in 100 mM sodium (+)/phosphate (“NaPi”, pH 7.4, Sigma Aldritch) buffer, 5 mM magnesium chloride (“MgCl2, Sigma Aldritch) buffer, is pre-warmed at 37° C.;\n(§4) 2) 5 μl of 50 μM test compound (98.6% ACN, 1.4% DMSO) is added to the same tube and pre-incubated at 37° C. for 5 minutes; and\n(§5) 3) The reaction is initiated by the addition of 50 μl of pre-warmed 10 mM NADPH solution in 100 mM NaPi, pH 7.4.\n(§6) Reaction components are mixed well and then 65 μl are immediately transferred into 130 μl quench/stop solution (zero-time point, T0). The reactions are incubated at 37° C. for 5, 10, 15, 30 and 45 minutes and at each time-point a 65 μl aliquot is transferred into 130 μl of quench solution. ACN containing Internal Standard (100 ng/ml), is used as the quench solution to terminate metabolic reactions. The quenched mixtures are centrifuged at 1500 rpm (˜500×g) in an Allegra X-12 centrifuge, SX4750 rotor (Beckman Coulter Inc., Fullerton, Calif.) for fifteen minutes to pellet denatured microsomes. A volume of 90 μl of supernatant extract, containing the mixture of parent compound and its metabolites, is then transferred to a separate 96-well plate for LC/MS-MS analysis to determine the percent of parent compound that is remaining in the mixture. Peak integration is performed on all samples using the Hepatic Clearance Calculator of QuickCalc by Gubbs, Inc. The percent remaining calculation is performed by comparing the LC-MS/MS peak areas from the samples at each time point to those from the T0 samples for each compound. T1/2 values are calculated from linear regression of the LN (% Remaining) over time, and the slope of that regression (Kel) is used to calculate T1/2, using the following equation: T1/2=−0.693/Kel."}, "[1]": {"assay": "Metabolic stability in liver microsomes test", "settings": "human, pH 7.4", "description": "as §1, §2, §3, §4, §5, §6"}}, "data": [{"smiles": "Cc1nc(-n2cc(Cl)c(OC3CCN(c4ncc(Cl)cn4)CC3)cc2=O)ccc1N1CCC(O)C1=O", "note": "(centres unmarked) [Example 1, 5-chloro-4-((1-(5-chloropyrimidin-2-yl)piperidin-4-yl)oxy)-5′-(3-hydroxy-2-oxopyrrolidin-1-yl)-6′-methyl-2H-[1,2′-bipyridin]-2-one]", "values": [{"measurement": "Glucose Lowering", "setting": "male C57BL/6J mice", "value": "−36", "unit": "%"}, {"measurement": "Minimally efficacious Dose", "setting": "male C57BL/6J mice", "value": 0.03, "unit": "mg/kg"}, {"measurement": "solubility", "setting": "Aqueous solubility assay", "value": 4, "unit": "µg/mL"}, {"measurement": "half-life at 0.5 µM", "setting": "in vitro", "value": 1.57, "unit": "h"}]}, {"smiles": "CCCc1cnc(N2CCC(Oc3cc(=O)n(-c4ccc(N5CCC(O)C5=O)c(C)n4)cc3Cl)CC2)nc1", "note": "(centres unmarked) [Example 2, 5-chloro-5′-(3-hydroxy-2-oxopyrrolidin-1-yl)-6′-methyl-4-((1-(5-propylpyrimidin-2-yl)piperidin-4-yl)oxy)-2H-[1,2′-bipyridin]-2-one]", "values": [{"measurement": "Glucose Lowering", "setting": "male C57BL/6J mice", "value": "−19", "unit": "%"}, {"measurement": "Minimally efficacious Dose", "setting": "male C57BL/6J mice", "value": 0.03, "unit": "mg/kg"}, {"measurement": "solubility", "setting": "Aqueous solubility assay", "value": 1, "unit": "µg/mL"}, {"measurement": "half-life at 0.5 µM", "setting": "[1]", "value": 2, "unit": "h"}]}, {"smiles": "CCCc1cnc(N2CCC(Oc3ccn(-c4ccc(N5CCC(O)C5=O)c(C)n4)c(=O)c3)CC2)nc1", "note": "(centres unmarked) [Example 5, 5′-(3-hydroxy-2-oxopyrrolidin-1-yl)-6′-methyl-4-((1-(5-propylpyrimidin-2-yl)piperidin-4-yl)oxy)-2H-[1,2′-bipyridin]-2-one]", "values": [{"measurement": "Glucose Lowering", "setting": "male C57BL/6J mice", "value": "−21", "unit": "%"}, {"measurement": "Minimally efficacious Dose", "setting": "male C57BL/6J mice", "value": 0.1, "unit": "mg/kg"}, {"measurement": "solubility", "setting": "Aqueous solubility assay", "value": 3, "unit": "µg/mL"}, {"measurement": "half-life at 0.5 µM", "setting": "in vitro", "value": 1.27, "unit": "h"}]}, {"smiles": "Cc1nc(-n2ccc(OC3CCN(c4ncc(Cl)cn4)CC3)cc2=O)ccc1N1CCC(O)C1=O", "note": "(centres unmarked) [Example 6, 4-((1-(5-chloropyrimidin-2-yl)piperidin-4-yl)oxy)-5′-(3-hydroxy-2-oxopyrrolidin-1-yl)-6′-methyl-2H-[1,2′-bipyridin]-2-one]", "values": [{"measurement": "solubility", "setting": "Aqueous solubility assay", "value": 7, "unit": "µg/mL"}, {"measurement": "half-life at 0.5 µM", "setting": "in vitro", "value": 1.68, "unit": "h"}]}]}
